Assays:
Settings in all cases: 72 h
HepG2 [1] = test: cell viability relative to DMSO; higher = less toxic
Calu-3 [2] = test: as above
Caco-2 [3] = test: as above
U2OS [4] = test: as above
Vero E6 [5] = test: as above
HepG2 [6] = test: relative viability EC50 (midpoint between 100% and the lowest measured viability); higher = less toxic
Calu-3 [7] = test: as above
Caco-2 [8] = test: as above
U2OS [9] = test: as above
Vero E6 [10] = test: as above
HepG2 [11] = test: drug sensitivity score (DSS) for viability; higher = more toxic; extreme values may be limits of the assay
Calu-3 [12] = test: as above
Caco-2 [13] = test: as above
U2OS [14] = test: as above
Vero E6 [15] = test: as above

Structure (SMILES) | cell viability (HepG2 [1]; 1 nM) | cell viability (HepG2 [1]; 10 nM) | cell viability (HepG2 [1]; 100 nM) | cell viability (HepG2 [1]; 1000 nM) | cell viability (HepG2 [1]; 10000 nM) | cell viability (Calu-3 [2]; 1 nM) | cell viability (Calu-3 [2]; 10 nM) | cell viability (Calu-3 [2]; 100 nM) | cell viability (Calu-3 [2]; 1000 nM) | cell viability (Calu-3 [2]; 10000 nM) | cell viability (Caco-2 [3]; 1 nM) | cell viability (Caco-2 [3]; 10 nM) | cell viability (Caco-2 [3]; 100 nM) | cell viability (Caco-2 [3]; 1000 nM) | cell viability (Caco-2 [3]; 10000 nM) | cell viability (U2OS [4]; 1 nM) | cell viability (U2OS [4]; 10 nM) | cell viability (U2OS [4]; 100 nM) | cell viability (U2OS [4]; 1000 nM) | cell viability (U2OS [4]; 10000 nM) | cell viability (Vero E6 [5]; 1 nM) | cell viability (Vero E6 [5]; 10 nM) | cell viability (Vero E6 [5]; 100 nM) | cell viability (Vero E6 [5]; 1000 nM) | cell viability (Vero E6 [5]; 10000 nM) | relative viability EC50 (HepG2 [6]) | relative viability EC50 (Calu-3 [7]) | relative viability EC50 (Caco-2 [8]) | relative viability EC50 (U2OS [9]) | relative viability EC50 (Vero E6 [10]) | drug sensitivity score (HepG2 [11]) | drug sensitivity score (Calu-3 [12]) | drug sensitivity score (Caco-2 [13]) | drug sensitivity score (U2OS [14]) | drug sensitivity score (Vero E6 [15])
Cc1cc(C)c2c(N)c(C(=O)NCc3ccc(Cl)cc3)sc2n1 | 102% | 105% | 101% | 91.6% | 98.5% | 101% | 92.2% | 97% | 108% | 96.3% | 95.7% | 91.5% | 107% | 89.5% | 108% | 98.9% | 103% | 99.7% | 102% | 105% | 101% | 91.8% | 108% | 90.4% | 105% | > 10 µM | > 10 µM | > 10 µM | > 10 µM | > 10 µM | 0 | 0 | 0 | 0 | 0
Cc1cnc(Nc2ccc(N3CCN(C)CC3)cc2)nc1Nc1cccc(S(=O)(=O)NC(C)(C)C)c1 | 96.2% | 105% | 97.2% | 57.9% | 28.9% | 93% | 95.1% | 92.6% | 86.1% | 13.8% | 96.3% | 101% | 98.4% | 64.3% | 9.6% | 92.1% | 93.7% | 100% | 75.3% | 0.5% | 93% | 105% | 94.9% | 90.9% | 0.2% | 0.8 µM | 1.92 µM | 1.2 µM | 1.55 µM | 2.41 µM | 9 | 7.1 | 9.7 | 9.3 | 7
CC(C)Cc1ccc([C@@H](C)C(=O)NCCO)cc1 (racemic) [mabuprofen] | 92.7% | 105% | 90.8% | 95.3% | 96.4% | 106% | 103% | 105% | 99.4% | 117% | 102% | 96.4% | 104% | 94% | 96.1% | 105% | 98.9% | 103% | 100% | 100% | 102% | 100% | 101% | 97.9% | 94.7% | > 10 µM | > 10 µM | > 10 µM | > 10 µM | > 10 µM | 0 | 0 | 0 | 0 | 0
